Patent publication US20250101041A1, “POSITIVE ALLOSTERIC MODULATORS OF THE MUSCARINIC ACETYLCHOLINE RECEPTOR M4” (Vanderbilt University, priority 2022, published 2025)

Molecular target: T1, human mAChR M4 (Homo sapiens, UniProt P08173)
T1 construct: expressed in transfected cells; host or cells: CHO-K1 (American Type Culture Collection), stably expressing hM4 and Gqi5
T1 sequence (P08173 1-479): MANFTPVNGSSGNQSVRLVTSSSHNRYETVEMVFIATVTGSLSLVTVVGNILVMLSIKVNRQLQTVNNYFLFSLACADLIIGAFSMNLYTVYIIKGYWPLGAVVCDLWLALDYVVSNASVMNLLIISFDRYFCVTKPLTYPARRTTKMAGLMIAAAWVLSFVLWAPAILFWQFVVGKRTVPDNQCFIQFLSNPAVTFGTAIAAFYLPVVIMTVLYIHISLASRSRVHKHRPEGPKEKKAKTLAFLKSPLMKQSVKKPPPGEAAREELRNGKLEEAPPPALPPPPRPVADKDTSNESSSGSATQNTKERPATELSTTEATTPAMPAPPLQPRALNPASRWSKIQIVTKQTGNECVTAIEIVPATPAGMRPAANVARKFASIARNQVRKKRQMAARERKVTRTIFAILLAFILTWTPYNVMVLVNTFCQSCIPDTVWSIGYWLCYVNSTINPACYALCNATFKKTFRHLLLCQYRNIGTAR
Experiment: mAChR M4 cell-based functional assay: calcium mobilization (Fluo-4, FDSS), potentiation of EC20 acetylcholine response in hM4-Gqi5 CHO-K1 cells
Design: Emax: dose or concentration left out as unconfirmed
Conditions: for Emax at 30 µM: CHO-K1, % ACh maximum at 30 μM; for Emax at 30 µM / EC50: human M4; for EC50: potentiation of EC20 acetylcholine response, calcium mobilization
How it was run: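 CHO-K1 cells stably co-expressing human M4 and chimeric Gqi5, loaded with Fluo-4 AM (50 min, 37 °C). Compounds in 11-point 1:3 series added first; EC20 acetylcholine added at 144 s and again at 230 s. Calcium read on FDSS at 1 Hz; EC50 and Emax from four-parameter logistic fit of potentiated EC20 response.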

Structure (SMILES)	Emax at 30 µM [%]	EC50 [nM]	Emax (CHO-K1) [%]
Cc1cc(=O)n2nc(N3CCc4ncc(-c5ccc(C)o5)cc4C3)c(C)cc2n1 [Compound 1-302, 2,8-dimethyl-7-(3-(5-methylfuran-2-yl)-7,8-dihydro-1,6-naphthyridin-6(5H)-yl)-4H-pyrimido[1,2-b] pyridazin-4-one]	85	188	–
Cc1cc(F)c(F)cc1-c1cnc2c(c1)CN(c1nn3c(=O)ccnc3cc1C)CC2 [Compound 1-445, 7-(3-(4,5-difluoro-2-methylphenyl)-7,8-dihydro-1,6-naphthyridin-6(5H)-yl)-8-methyl-4H-pyrimido[1,2-b]pyridazin-4-one]	85	78	–
C=Cc1cnc2cc(C)c(N3CCc4ncc(C(F)(F)F)cc4C3)nn2c1=O [Compound 1-22, 8-Methyl-7-(3-(trifluoromethyl)-7,8-dihydro-1,6-naphthyridin-6(5H)-yl)-3-vinyl-4H-pyrimido[1,2-b]pyridazin-4-one]	–	246	73
Cc1cc(=O)n2nc(N3CCc4ncc(-c5cc(F)ncc5F)cc4C3)c(C)c(C)c2n1 [Compound 1-281, 7-(3-(2,5-difluoropyridin-4-yl)-7,8-dihydro-1,6-naphthyridin-6(5H)-yl)-2,8,9-trimethyl-4H-pyrimido[1,2-b]pyridazin-4-one]	85	498	–
Cc1c(N2CCc3ncc(-c4cnccc4C(F)(F)F)cc3C2)nn2c(=O)cc(C(F)F)nc2c1C [Compound 1-189, 2-(difluoromethyl)-8,9-dimethyl-7-(3-(4-(trifluoromethyl)pyridin-3-yl)-7,8-dihydro-1,6-naphthyridin-6(5H)-yl)-4H-pyrimido[1,2-b]pyridazin-4-one]	48	515	–
COC1CCN(c2cnc3c(c2)CN(c2nn4c(=O)cc(C)nc4c(C)c2C)CC3)CC1 [Compound 2-45, 7-(3-(4-methoxypiperidin-1-yl)-7,8-dihydro-1,6-naphthyridin-6(5H)-yl)-2,8,9-trimethyl-4H-pyrimido[1,2-b]pyridazin-4-one]	66	827	–
Cc1ccc(-c2cnc3c(c2)CN(c2nn4c(=O)cc(CC5CCCC5)nc4c(C)c2C)CC3)cn1 [Compound 1-226, 2-(cyclopentylmethyl)-8,9-dimethyl-7-(3-(6-methylpyridin-3-yl)-7,8-dihydro-1,6-naphthyridin-6(5H)-yl)-4H-pyrimido[1,2-b]pyridazin-4-one]	59	1190	–
Cc1cc2nccc(=O)n2nc1N1CCc2ncc(-c3cnc(Cl)cc3C(F)F)cc2C1 [Compound 1-329, 7-(3-(6-chloro-4-(difluoromethyl)pyridin-3-yl)-7,8-dihydro-1,6-naphthyridin-6(5H)-yl)-8-methyl-4H-pyrimido[1,2-b]pyridazin-4-one]	78	1060	–
COc1cc(C)c(-c2cnc3c(c2)CN(c2nn4c(=O)cc(C(F)F)nc4c(C)c2C)CC3)cn1 [Compound 1-188, 2-(difluoromethyl)-7-(3-(6-methoxy-4-methylpyridin-3-yl)-7,8-dihydro-1,6-naphthyridin-6(5H)-yl)-8,9-dimethyl-4H-pyrimido[1,2-b]pyridazin-4-one]	91	103	–
Cc1cc2nccc(=O)n2nc1N1CCc2ncc(N3CCCc4cc(F)ccc43)cc2C1 [Compound 2-103, 7-(3-(6-fluoro-3,4-dihydroquinolin-1(2H)-yl)-7,8-dihydro-1,6-naphthyridin-6(5H)-yl)-8-methyl-4H-pyrimido[1,2-b]pyridazin-4-one]	89	33	–
Cc1cc2nc(C(F)(F)F)cc(=O)n2nc1N1CCc2ncc(C(F)(F)F)cc2C1 [Compound 1-17, 8-methyl-2-(trifluoromethyl)-7-(3-(trifluoromethyl)-7,8-dihydro-1,6-naphthyridin-6(5H)-yl)-4H-pyrimido[1,2-b]pyridazin-4-one]	79	105	–
Cc1cc2nccc(=O)n2nc1N1CCc2ncc(Nc3cncc(C(F)(F)F)c3)cc2C1 [Compound 2-138, 8-methyl-7-(3-((5-(trifluoromethyl)pyridin-3-yl)amino)-7,8-dihydro-1,6-naphthyridin-6(5H)-yl)-4H-pyrimido[1,2-b]pyridazin-4-one]	87	747	–
Cc1cc2ncc(Cl)c(=O)n2nc1N1CCc2ncc(-c3cnn(C4CC4)c3)cc2C1 [Compound 1-12, 3-chloro-7-(3-(1-cyclopropyl-1H-pyrazol-4-yl)-7,8-dihydro-1,6-naphthyridin-6(5H)-yl)-8-methyl-4H-pyrimido[1,2-b]pyridazin-4-one]	80	127	–
Cc1cc(=O)n2nc(N3CCc4ncc(-c5ccc(C)o5)cc4C3)c(C)c(C)c2n1 [Compound 1-305, 2,8,9-trimethyl-7-(3-(5-methylfuran-2-yl)-7,8-dihydro-1,6-naphthyridin-6(5H)-yl)-4H-pyrimido[1,2-b] pyridazin-4-one]	88	315	–
Cc1ccc(-c2cnc3c(c2)CN(c2nn4c(=O)ccnc4cc2C)CC3)nc1 [Compound 1-351, 8-methyl-7-(3-(5-methylpyridin-2-yl)-7,8-dihydro-1,6-naphthyridin-6(5H)-yl)-4H-pyrimido[1,2-b]pyridazin-4-one]	55	426	–
Cc1c(N2CCc3ncc(-c4ccccc4C(F)(F)F)cc3C2)nn2c(=O)ccnc2c1C [Compound 1-266, 8,9-dimethyl-7-(3-(2-(trifluoromethyl)phenyl)-7,8-dihydro-1,6-naphthyridin-6(5H)-yl)-4H-pyrimido[1,2-b] pyridazin-4-one]	81	621	–
Cc1cc2nccc(=O)n2nc1N1CCc2ncc(Nc3cc(F)ccc3C#N)cc2C1 [Compound 2-81, 4-fluoro-2-((6-(8-methyl-4-oxo-4H-pyrimido[1,2-b]pyridazin-7-yl)-5,6,7,8-tetrahydro-1,6-naphthyridin-3-yl)amino)benzonitrile]	85	230	–
Cc1cc(=O)n2nc(N3CCc4ncc(-c5cnc(F)cc5C)cc4C3)c(C)c(C)c2n1 [Compound 1-202, 7-(3-(6-fluoro-4-methylpyridin-3-yl)-7,8-dihydro-1,6-naphthyridin-6(5H)-yl)-2,8,9-trimethyl-4H-pyrimido[1,2-b]pyridazin-4-one]	91	104	–
Cc1c(N2CCc3ncc(-c4cnn(C(F)F)c4)cc3C2)nn2c(=O)cc(C(F)F)nc2c1C [Compound 1-172, 2-(difluoromethyl)-7-(3-(1-(difluoromethyl)-1H-pyrazol-4-yl)-7,8-dihydro-1,6-naphthyridin-6(5H)-yl)-8,9-dimethyl-4H-pyrimido[1,2-b]pyridazin-4-one]	85	114	–
Cc1cc2nccc(=O)n2nc1N1CCc2ncc(NS(C)(=O)=O)cc2C1 [Compound 2-117, N-(6-(8-methyl-4-oxo-4H-pyrimido[1,2-b]pyridazin-7-yl)-5,6,7,8-tetrahydro-1,6-naphthyridin-3-yl)methanesulfonamide]	83	2760	–
Cc1c(N2CCc3ncc(-c4cc(F)cc(F)c4F)cc3C2)nn2c(=O)ccnc2c1C [Compound 1-346, 8,9-dimethyl-7-(3-(2,3,5-trifluorophenyl)-7,8-dihydro-1,6-naphthyridin-6(5H)-yl)-4H-pyrimido[1,2-b]pyridazin-4-one]	67	483	–
Cc1cc(=O)n2nc(N3CCc4ncc(-c5ccccc5O)cc4C3)c(C)cc2n1 [Compound 1-235, 7-(3-(2-hydroxyphenyl)-7,8-dihydro-1,6-naphthyridin-6(5H)-yl)-2,8-dimethyl-4H-pyrimido[1,2-b]pyridazin-4-one]	62	568	–
COc1ccccc1-c1cnc2c(c1)CN(c1nn3c(=O)cc(C)nc3c(C)c1C)CC2 [Compound 1-250, 7-(3-(2-methoxyphenyl)-7,8-dihydro-1,6-naphthyridin-6(5H)-yl)-2,8,9-trimethyl-4H-pyrimido[1,2-b]pyridazin-4-one]	79	1010	–
Cc1ccc(-c2cnc3c(c2)CN(c2nn4c(=O)cc(C(=O)NCc5cncs5)nc4cc2C)CC3)cn1 [Compound 1-77, 8-Methyl-7-(3-(6-methylpyridin-3-yl)-7,8-dihydro-1,6-naphthyridin-6(5H)-yl)-4-oxo-N-(thiazol-5-ylmethyl)-4H-pyrimido[1,2-b]pyridazine-2-carboxamide]	74	285	–
Cc1cc(=O)n2nc(N3CCc4ncc(-c5cnn(C)c5C)cc4C3)c(C)cc2n1 [Compound 1-294, 7-(3-(1,5-dimethyl-1H-pyrazol-4-yl)-7,8-dihydro-1,6-naphthyridin-6(5H)-yl)-2,8-dimethyl-4H-pyrimido[1,2-b]pyridazin-4-one]	99	245	–
Cc1c(N2CCc3ncc(-c4cnccc4C(F)(F)F)cc3C2)nn2c(=O)ccnc2c1C [Compound 1-142, 8,9-dimethyl-7-(3-(4-(trifluoromethyl)pyridin-3-yl)-7,8-dihydro-naphthyridin-6(5H)-yl)-4H-pyrimido[1,2-b]pyridazin-4-one]	53	371	–
